Assay results reported in patent publication US20200190101A1, “Composition Containing Novel Glutamic Acid Derivative And Block Copolymer, And Use Thereof” (Nippon Kayaku Kabushiki Kaisha, priority 2015, published 2020).
Structures can show the parent of a compound that is named as a salt.

System: Human renal cell cancer OS-RC-2
Experiment: Test on antitumor effect of Example 6, OS-RC-2
Type: in vivo, nude mice
Details: 20 mg/kg in terms of epirubicin, i.v. once
Experimental: Human renal cell cancer OS-RC-2 was transplanted into nude mice similarly to Test Example 15, and after tumor engraftment was confirmed, the composition of Example 6 according to the present invention was dissolved in 5% glucose. The solution was intravenously administered through the caudal vein once at a dose of 10 or 20 mg/kg in terms of epirubicin. Furthermore, as a control drug, epirubicin hydrochloride was dissolved in a physiological solution, and the solution was intravenously administered through the caudal vein once at a dose of 10 or 20 mg/kg in terms of epirubicin.
After the administration, the major axis (L) and the minor axis (W) of a tumor were measured using calipers at an interval of 2 to 3 days, the tumor volume was calculated by the formula: (L×W^2)/2, and the tumor volume change rate from the administration initiation day was determined.

COc1cccc2c1C(=O)c1c(O)c3c(c(O)c1C2=O)C[C@@](O)(C(=O)CO)C[C@@H]3O[C@H]1C[C@H](N)[C@@H](O)[C@H](C)O1 [epirubicin hydrochloride]
Toxicity (death of mice): the mice died 8 days after the administration due to toxicity
